Data as given in US20150284349A1 (priority 2013, published 2015).
Where two headings read alike, the source gives them in different places.

Key:
HIF1a = settings: cited from earlier work
HIF/p300 complex = HIF/p300 complex (Homo sapiens, UniProt Q09472); settings: cited from earlier work
[1] = Human microsome stability; assay type: in vitro ADME
[2] = Maximum tolerated dose study; assay type: in vivo, male BALB/c mice; settings: for MTD at 14 days: male, BALB/c, mouse, in vivo
Experimental: Three groups of three animals (male BALB/c mice) were administered increasing doses of compound 1 every other day for 14 days and the animals checked daily for the signs of moribundity, mortality, vocalization, and gross weight or body shape abnormalities. Dose escalation of compound 1 was performed according to the “modified Fibonacci search” scheme, compound 1 (x=2 mg/kg) was dosed at 4, 6.6, 10, 14, 24 and 32 mg/kg on Days 0, 2, 4, 6, 8 and 10. […] An average MTD of 21.1 mg/kg for the three groups combined was determined from this study.

[3] = tested on: 786-O xenografts (renal cell carcinoma); assay: Mouse xenograft study, 786-O renal cell carcinoma; assay type: in vivo, mice
Experimental: Mouse xenograft study was conducted to evaluate the primary endpoint of efficacy (reduction in tumor volume of >50% as compared to control) and the secondary endpoint of survival (Kaplan-Meier). Tumors were established in the flank region and grown to about 100 mm^3 The mice were treated with compound 1 in the 786-O xenografts (renal cell carcinoma) at 1 mg/kg given IV. The compound was injected every fourth day for 45 days (a total of 11 injections, see following table).
All tumors were imaged at the end of the study and harvested for histopathology studies. Percentages of tumor volumes in control and compound 1—treated mice measured throughout the entire duration of the experiments. Error bars are ±SEM of each experimental group.
After the last treatment with compound 1, mice were injected with the tumor-targeting near-infrared (NIR) contrast agent IR-783, anesthetized and imaged on a Xenogen IVIS 200 small animal imager. The fluorescence output was processed with Living Image software with one representative sample for each group presented above.

[4] = Intravenous pharmacokinetic study, observation for adverse symptoms; assay type: in vivo, male and female BALB/c mice; settings: intravenous 1.0 mg/kg b.w., observed up to 24 hours post dose
Experimental: Non-fasted animals (Male and Female BALB/c mice or SD rats, ten groups, three animals per group) were administered with compound 1 in vehicle (5% (v/v) N,N-Dimethylacetamide, 50% (v/v) of 60% (w/v) Hydroxypropyl beta-Cyclodextrin, 45% (v/v) Sterile water for injection) by intravenous route with various doses 0.5, 1, 2.5, and 5 mg/kg body weight at dose volume of 10 mL/kg body weight. Under mild isoflurane anesthesia, blood specimens were collected into pre-labeled tubes containing anticoagulant (K2EDTA—2 mg/mL blood) at various time points (0.08, 0.16, 0.25, 0.50, 1.00, 2.00, 4.00, 6.00, 8.00 and 24.00 hours). Collected blood specimens were centrifuged at 4000 rpm, 4° C. for 10 minutes and plasma was separated and stored at −80° C. until analysis.

multiple CYP = assay: Standard CYP inhibition assays; assay type: in vitro ADME; settings: each assay
Experimental: (§1) The Log D7.4 value of compound 1 was measured to be 2.69 under standard experimental conditions. Inhibition of multiple CYP was measured for compound 1 using standard CYP inhibition assays.

[5] = Oral pharmacokinetic study, bioavailability; assay type: in vivo; settings: rat, plasma, 5 mg/kg b.w., Male SD rats
Experimental: Fasted animals (Male and Female BALB/c mice or SD rats, ten groups, three animals per group) were administered with compound 1 in vehicle (5% (v/v) N,N-Dimethylacetamide, 50% (v/v) of 60% (w/v) Sulfobutyl ether beta-cyclodextrin (SBEβCD) and 45% (v/v) Sterile water for injection) by oral route with a dose of 2.5, 5, and 10 mg/kg body weight at dose volume of 10 mL/kg b.w. Under mild isoflurane anesthesia, blood specimen were collected into pre-labeled tubes containing anticoagulant (K2EDTA—2 mg/mL blood) at various time points (0.08, 0.16, 0.25, 0.50, 1.00, 2.00, 4.00, 6.00, 8.00 and 24.00 hours). Collected blood specimens were centrifuged at 4000 rpm, 4° C. for 10 minutes and plasma was separated and stored at −80° C. until analysis.

Plasma protein binding = assay type: in vitro ADME
Log D7.4 measurement = assay type: physicochemical; settings: pH 7.4; standard experimental conditions
Experimental: as §1

Sequence of HIF/p300 complex (Q09472 whole entry, one chain of several): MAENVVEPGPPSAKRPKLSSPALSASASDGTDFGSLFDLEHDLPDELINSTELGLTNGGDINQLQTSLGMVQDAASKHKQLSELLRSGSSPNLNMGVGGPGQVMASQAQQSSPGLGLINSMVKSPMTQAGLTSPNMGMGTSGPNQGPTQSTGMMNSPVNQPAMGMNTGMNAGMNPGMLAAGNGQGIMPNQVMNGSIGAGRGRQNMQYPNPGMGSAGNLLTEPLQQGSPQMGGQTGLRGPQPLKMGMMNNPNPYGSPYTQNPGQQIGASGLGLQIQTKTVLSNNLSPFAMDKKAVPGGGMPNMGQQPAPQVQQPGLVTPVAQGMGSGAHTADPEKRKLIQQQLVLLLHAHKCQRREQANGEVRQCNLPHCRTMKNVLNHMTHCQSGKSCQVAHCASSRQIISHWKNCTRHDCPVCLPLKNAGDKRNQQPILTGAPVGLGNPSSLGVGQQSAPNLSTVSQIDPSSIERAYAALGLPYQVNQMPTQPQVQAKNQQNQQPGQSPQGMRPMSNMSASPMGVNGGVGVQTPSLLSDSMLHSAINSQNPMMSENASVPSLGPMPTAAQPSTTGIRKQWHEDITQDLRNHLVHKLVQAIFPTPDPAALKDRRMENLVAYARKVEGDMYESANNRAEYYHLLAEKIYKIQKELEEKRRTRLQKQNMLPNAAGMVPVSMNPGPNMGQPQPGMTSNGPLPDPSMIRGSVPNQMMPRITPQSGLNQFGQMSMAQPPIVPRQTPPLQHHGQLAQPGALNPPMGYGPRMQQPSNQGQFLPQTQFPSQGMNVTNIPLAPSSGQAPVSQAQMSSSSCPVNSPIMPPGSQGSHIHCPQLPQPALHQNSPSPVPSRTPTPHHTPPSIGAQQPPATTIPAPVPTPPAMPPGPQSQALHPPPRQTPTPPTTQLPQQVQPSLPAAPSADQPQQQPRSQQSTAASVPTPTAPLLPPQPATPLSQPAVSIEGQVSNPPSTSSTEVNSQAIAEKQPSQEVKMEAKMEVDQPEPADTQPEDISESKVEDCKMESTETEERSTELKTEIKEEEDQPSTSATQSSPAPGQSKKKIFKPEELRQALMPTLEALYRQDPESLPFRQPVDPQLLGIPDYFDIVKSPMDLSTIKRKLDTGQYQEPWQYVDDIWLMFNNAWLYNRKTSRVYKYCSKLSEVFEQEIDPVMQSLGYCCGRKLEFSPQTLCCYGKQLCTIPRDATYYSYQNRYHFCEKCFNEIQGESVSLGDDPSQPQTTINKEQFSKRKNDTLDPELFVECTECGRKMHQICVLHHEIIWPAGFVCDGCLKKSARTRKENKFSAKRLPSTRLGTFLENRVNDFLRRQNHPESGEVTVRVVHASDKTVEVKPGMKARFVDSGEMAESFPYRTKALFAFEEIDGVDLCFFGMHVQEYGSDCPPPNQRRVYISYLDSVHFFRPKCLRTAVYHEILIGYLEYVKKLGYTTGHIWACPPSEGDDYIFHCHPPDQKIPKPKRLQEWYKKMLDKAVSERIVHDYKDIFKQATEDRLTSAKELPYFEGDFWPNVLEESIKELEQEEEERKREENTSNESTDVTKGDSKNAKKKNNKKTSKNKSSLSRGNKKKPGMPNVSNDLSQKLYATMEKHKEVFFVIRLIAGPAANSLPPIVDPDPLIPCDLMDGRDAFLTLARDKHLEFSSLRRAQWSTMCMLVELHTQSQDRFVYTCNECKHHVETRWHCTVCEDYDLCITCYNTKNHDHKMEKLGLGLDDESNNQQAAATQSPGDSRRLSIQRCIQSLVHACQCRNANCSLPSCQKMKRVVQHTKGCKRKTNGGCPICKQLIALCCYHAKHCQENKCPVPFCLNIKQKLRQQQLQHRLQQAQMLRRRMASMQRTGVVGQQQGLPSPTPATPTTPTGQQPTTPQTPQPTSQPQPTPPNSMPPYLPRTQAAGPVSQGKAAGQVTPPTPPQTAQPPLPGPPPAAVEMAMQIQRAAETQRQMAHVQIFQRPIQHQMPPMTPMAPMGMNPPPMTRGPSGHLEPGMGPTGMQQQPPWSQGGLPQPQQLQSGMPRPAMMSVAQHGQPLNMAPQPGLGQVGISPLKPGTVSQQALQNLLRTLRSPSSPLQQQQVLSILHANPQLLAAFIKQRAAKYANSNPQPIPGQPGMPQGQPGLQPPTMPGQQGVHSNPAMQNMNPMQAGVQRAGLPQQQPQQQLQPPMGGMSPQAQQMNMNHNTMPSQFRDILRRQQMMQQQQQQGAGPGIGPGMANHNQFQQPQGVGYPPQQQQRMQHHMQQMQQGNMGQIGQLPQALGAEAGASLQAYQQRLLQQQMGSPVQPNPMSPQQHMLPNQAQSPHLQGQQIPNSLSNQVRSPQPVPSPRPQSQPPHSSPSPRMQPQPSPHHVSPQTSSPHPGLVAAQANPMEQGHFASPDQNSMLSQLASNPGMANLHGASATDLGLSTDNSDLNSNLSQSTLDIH

## COc1cc2c(cc1O)CC[C@@H]1[C@@H]2CC[C@]2(C)[C@@H](O)CC[C@@H]12 [2-methoxyestradiol]
HIF1a
  HIF1a levels in vitro: reduce HIFIa levels

## CN1C(=O)[C@]2(Cc3cn([C@]45C[C@@]67SS[C@@](CO)(C(=O)N6[C@H]4Nc4ccccc45)N(C)C7=O)c4ccccc34)SS[C@@]1(CO)C(=O)N2C [chetomin]
HIF/p300 complex
  inhibition of the HIF/p300 complex: potent and specific inhibition

## CN1C(=O)[C@]2(Cc3ccc(CCc4ccc(C[C@@]56SS[C@@](CO)(C(=O)N5C)N(C)C6=O)cc4)cc3)SS[C@@]1(CO)C(=O)N2C (racemic) [Compound 1, (±)-4,4′-((ethane-1,2-diylbis(4,1-phenylene))bis(methylene))bis(1-(hydroxymethyl)-5,7-dimethyl-2,3-dithia-5,7-diazabicyclo[2.2.2]octane-6,8-dione)]
[1]
  in vitro clearance, human microsome stability studies: favorable in vitro clearance
[1]; in the presence of co-factor
  human microsome stability T1/2: short
[2]; 14 mg/kg dose, male BALB/c mice
  signs of toxicity: no signs of toxicity
[2]; 24 mg/kg dose, male BALB/c mice
  signs of toxicity: one animal exhibited signs of toxicity
[2]; Dose 4 mg/kg, Group 1
  animals affected per group of three (quantity not given): 0
[2]; Dose 4 mg/kg, Group 2
  animals affected per group of three (quantity not given): 0
[2]; Dose 4 mg/kg, Group 3
  animals affected per group of three (quantity not given): 0
[2]; Dose 6.6 mg/kg, Group 1
  animals affected per group of three (quantity not given): 0
[2]; Dose 6.6 mg/kg, Group 2
  animals affected per group of three (quantity not given): 0
[2]; Dose 6.6 mg/kg, Group 3
  animals affected per group of three (quantity not given): 0
[2]; Dose 10 mg/kg, Group 1
  animals affected per group of three (quantity not given): 0
[2]; Dose 10 mg/kg, Group 2
  animals affected per group of three (quantity not given): 0
[2]; Dose 10 mg/kg, Group 3
  animals affected per group of three (quantity not given): 0
[2]; Dose 14 mg/kg, Group 1
  animals affected per group of three (quantity not given): 0
[2]; Dose 14 mg/kg, Group 2
  animals affected per group of three (quantity not given): 0
[2]; Dose 14 mg/kg, Group 3
  animals affected per group of three (quantity not given): 0
[2]; Dose 24 mg/kg, Group 1
  animals affected per group of three (quantity not given): 0
[2]; Dose 24 mg/kg, Group 2
  animals affected per group of three (quantity not given): 1
[2]; Dose 24 mg/kg, Group 3
  animals affected per group of three (quantity not given): 1
[2]; Dose 32 mg/kg, Group 1
  animals affected per group of three (quantity not given): 3
[2]; Dose 32 mg/kg, Group 2
  animals affected per group of three (quantity not given): 3
[2]; Dose 32 mg/kg, Group 3
  animals affected per group of three (quantity not given): 3
[2]; Group 1, read-out: MTD
  MTD at 14 days: 25.3 mg/kg
[2]; Group 2, read-out: MTD
  MTD at 14 days: 19 mg/kg
[2]; Group 3, read-out: MTD
  MTD at 14 days: 19 mg/kg
[2]; three groups combined, male BALB/c mice, read-out: Average MTD
  MTD at 14 days: 21.1 mg/kg
[3]; 786-O xenografts in mice, 46 day experiment, control group 288%, P<0.01
  median tumor volume increase: 113%
[3]; after last treatment, Xenogen IVIS 200 imaging
  intensity of the NIR signal from tumor-accumulated contrast agent IR-783 compared to control group: significantly lower intensity
[3]; during the 45 day experiment
  weight loss: 5-8%
[4]
  adverse symptoms after dosing: found to be normal
Multiple CYP
  IC50: > 5 µM
[5]
  bioavailability: 28%
Plasma protein binding
  plasma protein binding: highly protein bound
Log D7.4 measurement
  logD: 2.69
